Experimental data reported in patent US11535593B2, “3-phosphoglycerate dehydrogenase inhibitors and uses thereof” (Raze Therapeutics, Inc., priority 2016, dated 2022).

What was measured:
[1] = target: T1, Full length (FL) 3-Phosphoglycerate Dehydrogenase (PHGDH) (Homo sapiens, UniProt O43175); assay: Full length (FL) PHGDH Diaphorase coupled assay (20 uM NAD); assay type: biochemical; details: 10 nM PHGDH, 30° C., 60 minutes, read-out: FL Diaphorase 20 μM NAD (PHGDH activity inhibition, IC50)
T1 construct: Full length (FL) 3-Phosphoglycerate Dehydrogenase (PHGDH) Diaphorase coupled assay (500 uM NAD)
T1 sequence (O43175 1-533): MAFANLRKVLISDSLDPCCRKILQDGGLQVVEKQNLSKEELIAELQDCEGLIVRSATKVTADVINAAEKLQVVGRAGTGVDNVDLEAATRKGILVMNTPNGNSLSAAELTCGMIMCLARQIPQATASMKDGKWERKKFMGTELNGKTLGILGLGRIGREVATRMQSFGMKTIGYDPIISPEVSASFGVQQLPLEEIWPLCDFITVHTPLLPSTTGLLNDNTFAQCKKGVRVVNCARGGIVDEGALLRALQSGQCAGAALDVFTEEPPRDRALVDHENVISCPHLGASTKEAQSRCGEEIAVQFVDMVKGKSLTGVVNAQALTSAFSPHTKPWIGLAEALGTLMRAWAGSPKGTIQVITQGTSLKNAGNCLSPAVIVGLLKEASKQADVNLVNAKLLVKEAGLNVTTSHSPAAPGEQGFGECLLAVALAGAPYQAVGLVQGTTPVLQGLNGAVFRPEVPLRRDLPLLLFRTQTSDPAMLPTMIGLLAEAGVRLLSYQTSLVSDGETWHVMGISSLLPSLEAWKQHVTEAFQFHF
Protocol: Example 57: Full Length (FL) 3-Phosphoglycerate Dehydrogenase (PHGDH) Diaphorase Coupled Assay (20 uM NAD)
Serial dilution of compounds were incubated in a volume of 20 μl in 384 well plates with the assay mixture containing 10 nM PHGDH, 500 nM PSAT1, 500 nM PSPH, 20 μM NAD^+, 80 uM 3-phosphoglycerate, 1 mM glutamate, 57 uM Resazurin and 0.2 mg/ml Diaphorase in assay buffer containing 50 mM Trisethanoloamine (TEA) pH8.0, 10 mM MgCl2, 0.01% Tween-20 and 0.05% Bovine Serum Albumin (BSA). The plate was then incubated at 30° C. for 60 minutes and resorufin fluorescence was measured at emission wavelength 598 nm following excitation at 525 nm. The positive control consisted of the complete reaction mixture with 4% DMSO and was set to 0% inhibition. […] Percent inhibition with the compounds was then calculated by normalizing the fluorescence observed at a given compound concentration to the positive and negative controls.

[2] = target: T1, Full length (FL) 3-Phosphoglycerate Dehydrogenase (PHGDH); assay: Full length (FL) PHGDH Diaphorase coupled assay (500 uM NAD); assay type: biochemical; details: 5 nM PHGDH, 30° C., 60 minutes
Protocol: Full length (FL) 3-Phosphoglycerate Dehydrogenase (PHGDH) Diaphorase coupled assay (500 uM NAD)
PHGDH activity was determined by detecting the NADH produced during the reaction. Diaphorase was used to catalyze the oxidation of NADH with the concomitant reduction of resazurin to the fluorescent product resorufin. Resorufin fluorescence quantitatively reflected the production of NADH by the PHGDH reaction. To drive the forward reaction, two enzymes in the serine synthesis pathway subsequent to PHGDH, Phosphoserine aminotransferase (PSAT1) and phosphoserine phosphatase (PSPH) were also added to the reaction.

IC50 [1] [nM] | IC50 [2] [nM] | Compound
1000 to 5000 |  | CC(=O)NS(=O)(=O)NCCCNC(=O)c1cc2c(Cl)c(Cl)ccc2n1C [Compound I-52, N-[3-(acetylsulfamoylamino)propyl]-4,5-dichloro-1-methyl-indole-2-carboxamide]
10 to 1000 |  | Cn1c(C(=O)NC(CN)c2ccc(C(=O)O)cc2)cc2c(Cl)c(Cl)ccc21 (racemic) [Compound I-46, (±)-4-(2-Amino-1-(4,5-dichloro-1-methyl-1H-indole-2-carboxamido)ethyl) benzoic Acid]
> 10000 |  | Cn1c(C(=O)NC(C)(C)CC(N)=O)cc2c(Cl)c(Cl)ccc21 [Compound I-53, N-(3-amino-1,1-dimethyl-3-oxo-propyl)-4,5-dichloro-1-methyl-indole-2-carboxamide]
5000 to 10000 |  | CC(=O)NS(=O)(=O)N(C)CCCNC(=O)c1cc2c(Cl)c(Cl)ccc2n1C [Compound I-51, N-[3-[acetylsulfamoyl(methyl)amino]propyl]-4,5-dichloro-1-methyl-indole-2-carboxamide]
 | 10 to 1000 | Cn1c(C(=O)N[C@H](CO)c2ccc(C(=O)O)cc2F)cc2c(Cl)c(Cl)ccc21 [Compound I-22]
 | 10 to 1000 | Cn1c(C(=O)N[C@H](CO)c2ccc(C(=O)O)cc2)cc2c(Cl)c(Cl)ccc21 [Compound I-43, 4-[(1S)-1-[(4,5-dichloro-1-methyl-1H-indol-2-yl)formamido]-2-hydroxyethyl]benzoic acid]

Further lines, the molecule ahead of its results:

Compound | IC50 [1] [nM] | IC50 [2] [nM]
CC(=O)NS(=O)(=O)NCCC(NC(=O)c1cc2c(Cl)c(Cl)ccc2n1C)c1ccccc1 (racemic) [Compound I-50, (±)-N-[3-(acetylsulfamoylamino)-1-phenyl-propyl]-4,5-dichloro-1-methyl-indole-2-carboxamide] | 1000 to 5000 | 
CC(=O)NS(=O)(=O)NCCC(NC(=O)c1cc2c(Cl)c(Cl)ccc2n1C)c1ccc(C(=O)O)cc1 (centres unmarked) [Compound I-47, 4-[3-(Acetylsulfamoylamino)-1-[(4,5-dichloro-1-methyl-indole-2-carbonyl)amino]propyl]benzoic Acid] | 10 to 1000 | 
CC(=O)NS(=O)(=O)NCCC(NC(=O)c1cc2c(Cl)c(Cl)ccc2n1C)c1cccc(CO)c1 (racemic) [Compound I-48, (±)-N-[3-(acetylsulfamoylamino)-1-[3-(hydroxymethyl)phenyl]propyl]-4,5-dichloro-1-methyl-indole-2-carboxamide] | 1000 to 5000 | 
CC(=O)NS(=O)(=O)N(C)CCC(NC(=O)c1cc2c(Cl)c(Cl)ccc2n1C)c1ccc(C(=O)O)cc1 (racemic) [Compound I-45, (±)-4-[3-[Acetylsulfamoyl(methyl)amino]-1-[(4,5-dichloro-1-methyl-indole-2-carbonyl)-amino]propyl]benzoic Acid] | 10 to 1000 | 
Cn1c(C(=O)N[C@H](CO)c2ccc(CC(=O)O)cc2F)cc2c(Cl)c(Cl)ccc21 [Compound I-32, 2-{4-[(1S)-1-[(4,5-dichloro-1-methyl-1H-indol-2-yl)formamido]-2-hydroxyethyl]-3-fluorophenyl}acetic acid] |  | 10 to 1000
CC(=O)NS(=O)(=O)NCCC(NC(=O)c1cc2c(Cl)c(Cl)ccc2n1C)c1cccc(C(=O)O)c1 (racemic) [Compound I-49, (±)-3-[3-(Acetylsulfamoylamino)-1-[(4,5-dichloro-1-methyl-indole-2-carbonyl)amino]propyl]benzoic Acid] | 10 to 1000 | 
COc1ccc2c(cc(C(=O)N[C@H](CO)c3ccc(C(=O)O)cc3F)n2C)c1Cl [Compound I-13] |  | 10 to 1000
Cn1c(C(=O)N[C@H](CO)c2ccc(C3(C(=O)O)CC3)cc2)cc2c(Cl)c(Cl)ccc21 [Compound I-3] |  | 10 to 1000
CCC(C(=O)O)c1ccc([C@@H](CO)NC(=O)c2cc3c(Cl)c(Cl)c(OC)cc3n2C)cc1 (mixture of isomers) [Compound I-4, (±)-2-[4-[(1S)-1-[(4,5-dichloro-6-methoxy-1-methyl-indole-2-carbonyl)amino]-2-hydroxy-ethyl]phenyl]butanoic Acid] |  | 10 to 1000
Cn1c(C(=O)NC(c2ccc(C(=O)O)cc2)C(F)(F)F)cc2c(Cl)c(Cl)ccc21 (racemic) [Compound I-38, (±)-4-(1-(4,5-Dichloro-1-methyl-1H-indole-2-carboxamido)-2,2,2-trifluoroethyl)benzoic Acid] |  | 1000 to 5000
CC(C)C(C(=O)O)c1ccc([C@@H](CO)NC(=O)c2cc3c(Cl)c(Cl)ccc3n2C)cc1 (mixture of isomers) [Compound I-56, (±)-2-[4-[(1S)-1-[(4,5-dichloro-1-methyl-indole-2-carbonyl)amino]-2-hydroxy-ethyl]phenyl]-3-methyl-butanoic Acid] |  | 10 to 1000
